Entries after “also recorded” stand apart in the source; their conditions may differ.
Legend:
[1] = test system: male Syrian Golden Hamsters; assay: Oral mucositis induced by acute radiation in hamsters; assay type: in vivo
Procedure: Fifty-six (56) male Syrian Golden Hamsters were used in the study. Mucositis was induced by administering an acute radiation dose of 40 Gy directed to the left buccal cheek pouch on Day 0 at a rate of 2-2.5 Gy/min. Mucositis was evaluated clinically starting on Day 6 and continuing on alternate days until Day 28. Hamsters reaching a mucositis severity score of 4 or higher received buprenorphine (0.5 mg/kg) SC twice a day for 48 hours or until score dropped below 4.
Dosing was scheduled as follows: for animals in Groups 1-4, animals were dosed with RRx-001 (1, 3, or 10 mg/kg) or vehicle (1:2 DMA:PEG400 vol:vol ratio) once a day (QD) on Days −4, −1, 1, 4, 7, 11, 14, 18, 21, and 25 via intraperitoneal (IP) administration; animals in Groups 5-7 were dosed QD with RRx-001 (1, 3, or 10 mg/kg) on Days −4, −1, 1, 8, 15, and 22.
The significance of differences observed between the control and treatment group was evaluated by comparing the days with mucositis scores≥3 and <3 between groups using chi-square analysis. […] The percentage of animal days with a score of ≥3 in the Vehicle Group was 57.29%. […] There were numerous days where animals dosed with RRx-001 had percent ulceration days that were lower (which can be interpreted as ameliorative of disease severity) in comparison to vehicle-dosed animals.
An analysis of the severity of mucositis was performed using the Mann-Whitney rank sum analysis to compare the visual mucositis scores for the treatment group to the Vehicle control group on each day of evaluation. In this analysis, 2 days of significant reduction in the mucositis score are generally required before it is regarded as meaningful.
This evaluation was intended to clarify which days of treatment had its maximal impact on the course of ulcerative mucositis. There were numerous days where animals dosed with RRx-001 had percent ulceration days that were lower (which can be interpreted as ameliorative of disease severity) in comparison to vehicle-dosed animals.

CD2F1 male mice = assay: Complete blood count with differential and reticulocytes after sublethal TBI or sham irradiation; assay type: in vivo; conditions: 7 Gy TBI
Procedure: (§1) To determine the pathophysiological effects of RRx-001 on hematopoietic protection in mice, CD2F1 male mice were treated with 10 mg/kg RRx-001 or the vehicle control 24 hours prior to a sublethal dose of TBI (7 Gy at 0.6 Gy/min using High-level Cobalt-60) or sham irradiation (day 0) according to the table below.
(§2) CD2F1 male mice (n=3/group) were divided into 4 experimental groups: 1) irradiation+vehicle, 2) irradiation+RRx-001, 3) sham-irradiation+vehicle and 4) sham-irradiation+RRx-001. Either 10 mg/kg RRx-001 or the vehicle control were IP injected 24 hours prior to either irradiation or sham-irradiation (day 0). On days 2, 7, 14, 21, and 28 post-irradiation (day 0) mice were humanely euthanized. Blood, bone marrow, and sternebrae were then collected. This experiment was performed in duplicate for a total of n=6 mice/group/time point.
Post-irradiation whole blood was obtained by terminal cardiocentesis. Blood samples were immediately transferred into EDTA tubes (Sarstedt Inc., Newton, NC) and gently rotated until the time of analysis. The tubes were analyzed for a complete blood count with differential and reticulocytes using the ADVIA 2120 (Siemens Medical Solutions Diagnostics, Dublin, Ireland), and Microsoft software version 5.9 (Microsoft Corp., Redmond, WA) to generate the data.
(§3) Blood parameters were compared between treatment groups using an analysis of variance (ANOVA). The Wilcoxon test was also used for sensitivity and to potentially address data departures from normality. A longitudinal mixed model repeated measures was also implemented to provide a more complete data analysis of the sham-irradiated treatment groups' difference in overall time profile mean based on the blood parameters. Bone marrow data (megakaryocytes and grade) statistical analysis was carried out using a parametric test consisting of a general linear model analysis of variance (ANOVA with factors consisting of treatment group and pathologist) and the Kruskal-Wallis nonparametric test. The statistical data analysis was carried out using R software (Version 3.4.3, 2016) and the graphs made using GraphPad Prism version 7.03 (GraphPad Software, La Jolla, CA).

bone marrow = assay: Histopathological analysis of bone marrow sternebrae (cellularity grade, megakaryocytes) after sublethal TBI or sham irradiation; assay type: in vivo, mice
Procedure: as §1, §2
Sternebrae from euthanized mice (n=6/group/time point) were collected on days 2, 7, 14, 21 and 28 post-irradiation. Sternebrae were fixed in 10% zinc-buffered formalin for at least 24 hours and up to 7 days. Fixed sternebrae were decalcified for 3 hr in 12-18% sodium EDTA (pH 7.4-7.5) and specimens dehydrated using graded ethanol concentrations and embedded in paraffin. Longitudinal 4 μm sections were stained with regular hematoxylin and eosin. Two board-certified pathologist conducted histopathological evaluation of the samples. One of the pathologist scored all the samples blindly. Bone marrow was evaluated in situ within sternebrae and graded (Grade 1: <10%; Grade 2: 11-30%; Grade 3: 31-60%; Grade 4: 61-89%; Grade 5: >90%) for total cellularity. Megakaryocytes were also quantified based on the average per 10 high power fields (HPF) at 400× magnification using a BX43 or BX53 microscope (Olympus, Minneapolis, MN). Images were captured with an Olympus DP22 camera and imported into Olympus Cellsens Standard software for review.
as §3
To determine the effect of RRx-001 on bone marrow, a histopathological analysis of bone marrow sternebrae was performed and the cellularity, as reported by grade (grade 1: <10%; grade 2: 11-30%; grade 3: 31-60%; grade 4: 61-89%; grade 5: ≥90% cellularity), and megakaryocyte numbers (averaged per 10 high-powered fields; HPF) were ascertained by two pathologists, one of which scored all the samples blindly (TAS, WEC).

superoxide dismutase = assay: Superoxide dismutase activity assay in hMSC; assay type: cell-based, human; conditions: 5 mM RRx-001 16 hours; 8 hours after 10 Gy irradiation
Procedure: The activity of superoxide dismutase activity was also assayed in hMSC. hMSC were treated for 16 hours with […] RRx-001 or vehicle, irradiated at 10 Gy or sham-irradiated and whole cell homogenate collected according to the manufacture's protocol. The assay measures the activity of all three forms of SOD. The amount of SOD activity (U/mL) was normalized to protein levels.

[2] = days 2 and 21 post-irradiation, vs vehicle control

## O=C(CBr)N1CC([N+](=O)[O-])([N+](=O)[O-])C1 [RRx-001, 2-bromo-1-(3,3-dinitroazetidin-1-yl)ethan-1-one]
[1]; 1 mg/kg IP
  daily mucositis scores compared to the Vehicle control group: multiple days of significant improvement in mucositis scores
[1]; 10 mg/kg IP
  daily mucositis scores compared to the Vehicle control group: multiple days of significant improvement in mucositis scores
[1]; 10 mg/kg IP, Group 2, dosed Days −4, −1, 1, 40 Gy
  mean daily mucositis scores: modest but significant enhancement of disease healing
[1]; 10 mg/kg IP, Groups 2 and 5, after cessation of dosing
  body weight by study termination: rebounded back to be in line with other groups
[1]; 10 mg/kg IP, Groups 2 and 5, dosing discontinued after Day 1
  tolerability of the highest dose: adverse side effects
[1]; 10 mg/kg IP, Groups 2 and 5, during study
  body weight: lower weights than all other groups
[1]; 10 mg/kg, Groups 2 and 5, only dosed on Days −4, −1, and 1
  percent ulceration: best response in decreasing percent ulceration
[1]; 3 and 1 mg/kg, 1 mg/kg, Group 4 vs Group 7
  percent days of ulceration, twice weekly dosing vs one time per week: more beneficial effects on percent days of ulceration
[1]; Group 2, 10 mg/kg on Days −4, −1, 1, p<0.01
  percentage of days with a mucositis score of ≥3 in comparison to the Vehicle Group: statistically lower
[1]; all groups except Groups 2 and 5 (1 and 3 mg/kg IP)
  body weight: steadily gained weight
[1]; all other treatment groups (Groups 3-7)
  mean daily mucositis scores: tracked fairly close to each other, and with Vehicle dosed controls
[1]; numerous days
  percent ulceration days in comparison to vehicle-dosed animals: lower
CD2F1 male mice; day 14, vs control mice
  % RETIC: significantly increased
CD2F1 male mice; day 14, vs controls
  ALC counts: significantly increased
  WBC counts: significantly increased
CD2F1 male mice; day 14, vs irradiated control
  % HCT: significantly increased
CD2F1 male mice; day 28, vs vehicle controls
  % RETIC: significantly increased
CD2F1 male mice; [2]
  absolute lymphocyte count (ALC): No significant difference
  absolute neutrophil count (ANC): No significant difference
  percent hematocrit (% HCT): No significant difference
  percent reticulocytes (% RETIC): No significant difference
  platelets (PLT): No significant difference
  white blood cells (WBC): No significant difference
CD2F1 male mice; days 7 and 14, vs control
  ANC: significantly increased
  PLT: significantly increased
CD2F1 male mice; irradiated RRx-001 vs irradiated vehicle group
  red blood cells and hemoglobin: not significantly different
CD2F1 male mice; irradiated mice vs irradiated vehicle control
  white blood cells and red blood cell production: significant increase
Bone marrow; 7 Gy TBI, 10 mg/kg IP 24 h before, day 7
  bone marrow cellularity compared to the vehicle control: slight increase in cellularity
Bone marrow; 7 Gy TBI, 10 mg/kg IP 24 h before, day 14, 10 mg/kg
  hematopoietic recovery by grade of bone marrow cellularity compared with control: significantly accelerated hematopoietic recovery; also recorded: significant increase in bone marrow cellularity
Bone marrow; 7 Gy TBI, 10 mg/kg, between days 7-28
  number of megakaryocytes: steady increase
Bone marrow; 7 Gy TBI, 10 mg/kg, day 2
  number of megakaryocytes: reduced
Bone marrow; 7 Gy TBI, 10 mg/kg, day 7
  number of megakaryocytes: severely depleted
Bone marrow; after 7 Gy TBI, 10 mg/kg IP 24 h before
  bone marrow cellularity grade: 1 (grade 1: <10%)
Superoxide dismutase
  Superoxide Dismutase Activity: did not increase
